Common to all, as to assay: DTP human tumour cell line panel, 48 h
In test [1] the test system is SR.
Test [2] deals with A549.
Test [3] has as its system NCI-H23.
Test [4] has as its system RPMI-8226.
Test [5] deals with SK-OV-3.
Test [6] concerns MDA-N.
The test system of test [7] is OVCAR-3.
The subject of test [8] is HCT-116.
In test [9] the test system is CCRF-CEM.
Test [10] deals with OVCAR-5.
Test [11] concerns HOP-62.
Test [12] has as its system A498.
In test [13] the test system is SK-MEL-28.
The subject of test [14] is HL-60.
Test [15] relates to K562.
Test [16] relates to KM12.
Test [17] concerns SW-620.
The subject of test [18] is RXF 393.
The subject of test [19] is SF-295.
Test [20] has as its system UACC-257.

These results are taken from ChEMBL document CHEMBL1201862, “PubChem BioAssay data set” (2004).

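Tested at 5 concentrations; 48 h exposure; 96-well plates; endpoints linearly interpolated, else capped at highest concentration. GI50 = concentration required for 50% inhibition of growth.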 The source made the active and inactive calls. No stated cut-off is given here; in the data, active = GI50 up to about 1.1 µM and inactive = higher. A value given as a limit tells only on which side of the number the result lay.

As usually defined, the GI50 is the concentration giving 50% growth inhibition. Take `Oc1cccc(Nc2cc(O)nc(O)n2)c1`: the GI50 is > 100 µM (inactive) in test [1]; > 100 µM (inactive) in test [2]; > 100 µM (inactive) in [3]; > 100 µM (inactive) in test [4]; 67.9 µM (inactive) in [5]; > 100 µM (inactive) in test [6]. Moreover, the GI50 in test [7], in test [8], in [9], in test [10], in [11] and in test [12] was > 100 µM (inactive) throughout. Moreover, the GI50 in test [13], in test [14], in [15], in [16], in [17] and in test [18] was > 100 µM (inactive) in each case. Further, the GI50 in test [19] and in test [20] was > 100 µM (inactive) in each case.

Turning to `COc1ccc(/C=N/NC(=O)c2ccccc2Nc2ccccc2C(=O)N/N=C/c2ccc(OC)c(OC)c2)cc1OC`, the GI50 in [1], in [2], in [3], in [4], in test [5] and in test [6] was > 100 µM (inactive) in each case. For the same compound, the GI50 in test [7], in test [8], in [9], in test [10], in test [11] and in test [12] was > 100 µM (inactive) each time. In addition, the GI50 in [13], in test [14], in test [15], in test [16], in test [17] and in test [18] was > 100 µM (inactive) each time. The GI50 was 39.9 µM (inactive) in test [19] and > 100 µM (inactive) in test [20].

On to `C(=N\Cc1ccccc1)/c1ccccc1-c1ccccc1/C=N/Cc1ccccc1`, for which the GI50 in [1] was 3.26 µM (inactive); in test [2] it was > 10 µM (inactive); in test [3], > 8.67 µM (inactive); in [4], 3.01 µM (inactive); in test [5], > 10 µM (inactive); in test [6], 5.33 µM (inactive). Moreover, the GI50 is 4.6 µM (inactive) in test [7]; 2.86 µM (inactive) in [8]; 2.65 µM (inactive) in test [9]; > 10 µM (inactive) in test [10]; > 10 µM (inactive) in test [11]; > 10 µM (inactive) in test [12]. The GI50 in test [13] is > 7.57 µM (inactive); in test [14], 2.36 µM (inactive); in [15], 3.13 µM (inactive); in [16], > 10 µM (inactive); in test [17], > 10 µM (inactive); in [18], > 10 µM (inactive). Also, the GI50 in [19] was > 10 µM (inactive); in test [20] it was 2.7 µM (inactive).

For the compound `Cc1cc(C(=O)CCCCOc2ccc(C3=NCCO3)cc2)c(C)n1C`, the GI50 was 29.4 µM (inactive) in test [1]; > 10 µM (inactive) in [2]; 41.1 µM (inactive) in [3]; 37.3 µM (inactive) in test [4]; 49.7 µM (inactive) in [5]; 28.1 µM (inactive) in [6]. Further, the GI50 was 38.8 µM (inactive) in [7]; 39.9 µM (inactive) in [8]; 20.6 µM (inactive) in test [9]; 71.6 µM (inactive) in [10]; 52.7 µM (inactive) in test [11]; 34.6 µM (inactive) in test [12]. Also, the GI50 in test [13] is 25.4 µM (inactive); in test [14] it was 0.0883 µM (active); in test [15] it was 39.2 µM (inactive); in test [16], 38.5 µM (inactive); in [17], 33.2 µM (inactive); in test [18], 13.2 µM (inactive). Besides, the GI50 in [19] was 34.4 µM (inactive); in test [20] it was 3.98 µM (inactive).

Turning to `O=C1[C@H](c2ccccc2)C2c3ccccc3CCN12` (stereo not given in full), the GI50 in [1], in test [2], in test [3], in [4], in test [5] and in [6] was > 10 µM (inactive) throughout. The GI50 in test [7], in test [8], in [9], in [10], in test [11] and in test [12] was > 10 µM (inactive) each time. For the same compound, the GI50 in test [13], in test [14], in test [15], in test [16], in [17] and in test [18] was > 10 µM (inactive) in each case. The GI50 in [19] and in [20] was > 10 µM (inactive) in each case.

As to `OC1CCCCCCCCCCC1[S+]1CCCC1.O[B-](F)(F)F` (stereo not given), the GI50 in [1] is > 100 µM (inactive); in [2], 96.6 µM (inactive); in test [3], 72.6 µM (inactive); in [4], 36.1 µM (inactive); in [5] it was > 100 µM (inactive); in test [6] it was > 100 µM (inactive). The GI50 in [7] was 52.5 µM (inactive); in test [8], > 100 µM (inactive); in test [9] it was > 100 µM (inactive); in test [10], > 100 µM (inactive); in test [11], > 100 µM (inactive); in [12] it was > 100 µM (inactive). Also, the GI50 is 68.4 µM (inactive) in test [13]; > 100 µM (inactive) in test [14]; 29.6 µM (inactive) in [15]; > 100 µM (inactive) in test [16]; > 100 µM (inactive) in test [17]; > 100 µM (inactive) in test [18]. Further, the GI50 in test [19] was > 100 µM (inactive); in [20], 38.8 µM (inactive).

With `Cc1cc(C)c2c(SCc3ccc(Cl)cc3Cl)nc(N)nc2n1`, the GI50 was 33 µM (inactive) in [1]; 36.3 µM (inactive) in test [2]; > 100 µM (inactive) in [3]; 60.7 µM (inactive) in [4]; > 100 µM (inactive) in test [5]; > 100 µM (inactive) in test [6]. For the same compound, the GI50 in [7] was 20.6 µM (inactive); in test [8], 27 µM (inactive); in test [9], > 100 µM (inactive); in test [10], > 100 µM (inactive); in [11] it was 37.4 µM (inactive); in test [12], > 100 µM (inactive). Moreover, the GI50 in test [13] is > 100 µM (inactive); in test [14], > 100 µM (inactive); in test [15] it was 22.7 µM (inactive); in test [16], > 100 µM (inactive); in test [17] it was > 100 µM (inactive); in test [18], > 100 µM (inactive). In addition, the GI50 in [19] is > 100 µM (inactive); in test [20], 4.6 µM (inactive).

For the compound `COC(=O)Cc1ccc2c(cnn2-c2ccccc2)c1OC`, the GI50 in test [1], in test [2], in test [3], in [4], in test [5] and in test [6] was > 10 µM (inactive) throughout. For the same compound, the GI50 in test [7], in test [8], in test [9], in test [10], in [11] and in test [12] was > 10 µM (inactive) in each case. Moreover, the GI50 in test [13], in [14], in test [15], in test [16], in [17] and in test [18] was > 10 µM (inactive) each time. Also, the GI50 in [19] and in [20] was > 10 µM (inactive) in each case.

For the compound `O=C1NC(=O)C(Cc2ccccc2)(c2cccnc2)N1` (stereo not given), the GI50 in [1], in test [2], in test [3], in test [4], in test [5] and in test [6] was > 100 µM (inactive) in each case. The GI50 in [7], in test [8], in test [9], in test [10], in test [11] and in [12] was > 100 µM (inactive) throughout. The GI50 in [13], in [14], in test [15], in test [16], in [17] and in test [18] was > 100 µM (inactive) each time. The GI50 in [19] and in test [20] was > 100 µM (inactive) in each case.

For the compound `CC(C)(C)N1C(=O)c2ccccc2C1(O)C(F)(F)F` (stereo not given), the GI50 in test [1] was > 100 µM (inactive); in test [2], > 100 µM (inactive); in [3] it was > 100 µM (inactive); in test [4], 76.6 µM (inactive); in [5] it was > 100 µM (inactive); in test [6], 84.9 µM (inactive). Moreover, the GI50 in [7], in test [8], in [9], in test [10], in test [11] and in test [12] was > 100 µM (inactive) throughout. The GI50 in [13] was > 100 µM (inactive); in [14] it was > 100 µM (inactive); in test [15], 20.5 µM (inactive); in test [16], > 100 µM (inactive); in test [17], > 100 µM (inactive); in test [18], > 100 µM (inactive). Further, the GI50 in test [19] and in test [20] was > 100 µM (inactive) throughout.
